The test system of assay [1] is Klebsiella pneumonia AG215. Nature of the assay: MIC by broth microdilution, Klebsiella pneumonia. Type of assay: cell-based. The note with it: strain AG215 Klebsiella pneumonia. (Dilution methods test growth across graded concentrations, often in twofold steps.)
Assay [2] deals with Enterobacter cloacae AG290. Description: MIC by broth microdilution, Enterobacter cloacae. Type of assay: cell-based. The note with it: strain AG290 Enterobacter cloacae.
Assay [3] relates to E coli carrying specific resistance determinants. Nature of the assay: MIC by broth microdilution, E coli carrying specific resistance determinants. The class given is cell-based. The note with it: for MIC: Escherichia coli; for MIC50 E coli AG036 ANT(4′,4″) / MIC50 E coli AG037 APH(3′)-III / MIC50 E coli AG103 armA / MIC50 E coli pH414 AAC(6′)-I / MIC50 E coli pH415 AAC(6′)-II / MIC50 E coli pH421 APH(3′)-I / MIC50 E coli pH422 APH(3′)-II / MIC50 E coli pH423 APH(3)-VI / MIC50 E coli pH432 ANT(4′): Table 2B (Example 2).

The test system of another assay is E coli wild type. Nature of the assay: MIC by broth microdilution, wild type E coli. Type of assay: cell-based. The note with it: for MIC: Escherichia coli; for MIC50 E coli BM13 (AG06) wt: Table 2A (Example 2); for MIC50 E coli pH430 WT: Table 2B (Example 2); for MIC50 E coli AG01: strain AG01; for MIC50 E coli AG01 / MIC50 E coli AG03 / MIC50 E coli AG55: Table 1 (Example 2); for MIC50 E coli AG03: strain AG03; for MIC50 E coli AG55: strain AG55; for MIC AG212 E. coli: strain AG212 E. coli (ATCC25922).

A further assay deals with M. smegmatis SZ380. Nature of the assay: MIC by broth microdilution, M. smegmatis. The note with it: for MIC SZ380 M. smegmatis: strain SZ380 Mycobacterium smegmatis.
For assay [4], the system named is Acinetobacter baumannii pittii AG225. Description: MIC by broth microdilution, Acinetobacter baumannii. The class given is cell-based. The note with it: strain AG225 Acinetobacter baumannii pittii.
In the next assay the test system is N. gonorrhoeae. Description: Disk diffusion, N. gonorrhoeae. The class given is cell-based. (In general: Agar diffusion results depend on both activity and mobility in agar.)
Another assay has as its system P aeruginosa. Nature of the assay: MIC by broth microdilution, P aeruginosa isolates. The class given is cell-based, Pseudomonas aeruginosa. The note with it: strain AG220 Pseudomonas aeruginosa ATCC27853.
The next assay deals with MRSA. Nature of the assay: MIC by broth microdilution, MRSA isolates. Type of assay: cell-based. The note with it: Table 1 (Example 2); for MIC50 MRSA AG38: strain AG38; for MIC50 MRSA AG39: strain AG39; for MIC50 MRSA AG42: strain AG42; for MIC50 MRSA AG44: strain AG44.

Structures are written as SMILES. Values after ≈ are worked out from the molar mass of the structure shown. Like-named read-outs stand apart in the source and are kept apart here.

The term MIC denotes the smallest concentration in the dilution series that meets the test's criterion for growth inhibition. Broadly, the zone of inhibition is the size of the clear area around the sample on an inoculated plate. A high value points to wide suppression of growth. For `CCC[C@@H]1C(CO)O[C@H](O[C@@H]2C(N)C[C@@H](N)C(O)[C@H]2O[C@@H]2O[C@H](CO)[C@H](O[C@H]3OC(CN)[C@@H](O)C(O)C3N)C2O)[C@@H](N)C1O` (some centres unmarked) [Compound 079], the MIC was 0.5 µg/mL (≈ 0.779 µM) in [1] (Klebsiella pneumoniae, read-out: MIC AG215 K. pneumon); 0.5 µg/mL (≈ 0.779 µM) in assay [2] (read-out: MIC AG290 E. cloacae); greater than 64 µg/mL in assay [3] (read-out: MIC AG037 E. coli APH(3′)-III); greater than 64 µg/mL in assay [3] (read-out: MIC AG163 E. coli APH(3′)-I); 1 to 2 µg/mL (≈ 1.56 to 3.12 µM) in assay [3] (read-out: MIC AG166 E. coli APH(3′)-II); greater than 32 µg/mL in assay [3] (read-out: MIC pH421 E. coli APH(3′)-I). Also, the MIC in assay [3] (read-out: MIC pH422 E. coli APH(3′)-II) came to 4 µg/mL (≈ 6.23 µM); in assay [3] (read-out: MIC pH423 E. coli APH(3′)-VI), 1 µg/mL (≈ 1.56 µM); with E coli wild type (ATCC25922, strain AG212 E. coli (ATCC25922), read-out: MIC AG212 E. coli), 1 µg/mL (≈ 1.56 µM); in the assay on E coli wild type (clinical isolate AG160 WT, Table 2 (Example 4), read-out: MIC AG160 E. coli WT), 1 µg/mL (≈ 1.56 µM); in the assay with E coli wild type (engineered strain pH430 WT, Table 2 (Example 4), read-out: MIC pH430 E. coli WT) it was 0.5 µg/mL (≈ 0.779 µM); in the assay with M. smegmatis SZ380 (Mycolicibacterium smegmatis, SZ380, read-out: MIC SZ380 M. smegmatis, strain SZ380 Mycobacterium smegmatis) it was 0.5 µg/mL (≈ 0.779 µM). The minimum inhibitory concentration (MIC) in assay [4] is 1 to 2 µg/mL (≈ 1.56 to 3.12 µM); in the assay with P aeruginosa (read-out: MIC AG220 P. aerugin), 4 µg/mL (≈ 6.23 µM). Moreover, the zone of inhibition at 25 nmol/disc with N. gonorrhoeae (Neisseria gonorrhoeae) was 16 mm.
Consider `C[C@@H](O)[C@H]1O[C@H](O[C@H]2[C@H](O[C@@H]3O[C@H](CO)[C@@H](O[C@H]4O[C@@H](CN)[C@@H](O)[C@H](O)[C@H]4N)[C@H]3O)[C@@H](O)[C@H](N)C[C@@H]2N)[C@H](N)[C@@H](O)[C@@H]1O` [Compound 155, 6′(R)-6′-C-Methylparomomycin], for which the “MIC AG215 K. pneumon” value in assay [1] was found to be 2 µg/mL (≈ 3.18 µM). Also, in assay [2], the “MIC AG290 E. cloacae” value was in the range of 2 to 4 µg/mL. Also, in assay [3], the “MIC50 E coli AG036 ANT(4′,4″)” value is greater than 32 µg/mL, the “MIC50 E coli AG037 APH(3′)-III” value was greater than 32 µg/mL, the “MIC50 E coli AG103 armA” value came to 8 µg/mL (≈ 12.7 µM) and the “MIC50 E coli pH414 AAC(6′)-I” value was 2 μg/ml. In assay [3], the “MIC50 E coli pH415 AAC(6′)-II” value stood at 2 μg/ml, the “MIC50 E coli pH421 APH(3′)-I” value is given as greater than 32 μg/ml, the “MIC50 E coli pH422 APH(3′)-II” value is greater than 32 μg/ml and the “MIC50 E coli pH423 APH(3)-VI” value is on record as greater than 32 μg/ml. The “MIC50 E coli pH432 ANT(4′)” value in assay [3] was 2 μg/ml. For the same compound, in the assay on E coli wild type, the “MIC50 E coli BM13 (AG06) wt” value was 2 µg/mL (≈ 3.18 µM), the “MIC50 E coli pH430 WT” value is 1-2 μg/ml, the “MIC50 E coli AG01” value was 8 to 16 µg/mL and the “MIC50 E coli AG03” value lay in the range of 8 to 16 µg/mL. Besides, in the assay on E coli wild type, the “MIC50 E coli AG55” value fell in the range of 8 to 16 µg/mL and the “MIC AG212 E. coli” value stood at 4 µg/mL (≈ 6.35 µM). The “MIC SZ380 M. smegmatis” value against M. smegmatis SZ380 was 4 µg/mL (≈ 6.35 µM). Moreover, the “MIC AG225 A. baumannii” value in assay [4] came to 4 µg/mL (≈ 6.35 µM). In addition, the “Disk diffusion 25 nmol N. gonorrhoeae” value in the assay with N. gonorrhoeae is 8 mm. Also, in the assay with MRSA, the “MIC50 MRSA AG38” value worked out at 8 µg/mL (≈ 12.7 µM), the “MIC50 MRSA AG39” value is greater than 64 µg/mL, the “MIC50 MRSA AG42” value is greater than 64 µg/mL and the “MIC50 MRSA AG44” value was 4 µg/mL (≈ 6.35 µM). In addition, in the assay with P aeruginosa, the “MIC AG220 P. aerugin” value is greater than 32 µg/mL.
As to `CC(O)C1OC(OC2C(N)CC(N)C(O)C2OC2OC(CO)C(OC3OC(CN)C(O)C(O)C3N)C2O)C(N)C(O)C1O` (centres unmarked) [Compound 156], the “MIC AG215 K. pneumon” value in assay [1] amounted to 1 µg/mL (≈ 1.59 µM). Also, the “MIC AG290 E. cloacae” value in assay [2] turned out to be 1 µg/mL (≈ 1.59 µM). Further, in [3], the “MIC50 E coli AG036 ANT(4′,4″)” value was 32 to 64 µg/mL, the “MIC50 E coli AG037 APH(3′)-III” value was greater than 32 µg/mL, the “MIC50 E coli AG103 armA” value is 1 µg/mL (≈ 1.59 µM) and the “MIC50 E coli pH414 AAC(6′)-I” value is recorded as 1 μg/ml. In assay [3], the “MIC50 E coli pH415 AAC(6′)-II” value stood at 1 μg/ml, the “MIC50 E coli pH421 APH(3′)-I” value is given as greater than 32 μg/ml, the “MIC50 E coli pH422 APH(3′)-II” value is reported as greater than 32 μg/ml and the “MIC50 E coli pH423 APH(3)-VI” value is on record as greater than 32 μg/ml. In assay [3], the “MIC50 E coli pH432 ANT(4′)” value is given as 1 μg/ml. For the same compound, in the assay on E coli wild type, the “MIC50 E coli BM13 (AG06) wt” value was determined as 1 µg/mL (≈ 1.59 µM), the “MIC50 E coli pH430 WT” value came out at 1 μg/ml, the “MIC50 E coli AG01” value was found to be 4 µg/mL (≈ 6.35 µM) and the “MIC50 E coli AG03” value was in the range of 4 to 8 µg/mL. Moreover, in the assay with E coli wild type, the “MIC50 E coli AG55” value worked out at 4 µg/mL (≈ 6.35 µM) and the “MIC AG212 E. coli” value was found to be 2 µg/mL (≈ 3.18 µM). Moreover, the “MIC SZ380 M. smegmatis” value with M. smegmatis SZ380 is 0.5 µg/mL (≈ 0.794 µM). Moreover, the “MIC AG225 A. baumannii” value in [4] came to 2 µg/mL (≈ 3.18 µM). The “Disk diffusion 25 nmol N. gonorrhoeae” value with N. gonorrhoeae is on record as 10 mm. Besides, in the assay on MRSA, the “MIC50 MRSA AG38” value was 4 to 8 µg/mL, the “MIC50 MRSA AG39” value was greater than 128 µg/mL, the “MIC50 MRSA AG42” value was greater than 128 µg/mL and the “MIC50 MRSA AG44” value was in the range of 2 to 4 µg/mL. Besides, the “MIC AG220 P. aerugin” value in the assay with P aeruginosa was greater than 32 µg/mL.

(Values after US11466044B2 (WAYNE STATE UNIVERSITY, priority 2017, dated 2022).)
